Assay results taken from ChEMBL document CHEMBL1201862, “PubChem BioAssay data set” (2004).
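Protocol summary: plate cells (96-well), add compound at 5 concentrations, incubate 48 h, interpolate endpoints linearly. Here, GI50 denotes the concentration required for 50% inhibition of growth.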 The source made the active and inactive calls. Cut-off read from the data, not from the text of the source: active = GI50 up to about 1.1 µM and inactive = higher. Peptide text beside a SMILES is read from it. * marks the point of attachment. Boc = CC(C)(C)OC(=O)*

Key:
Experiment in all cases: DTP human tumour cell line panel, 48 h
[1] = system: HCT-15
[2] = system: Hs-578T
[3] = system: UO-31
[4] = system: T47D
[5] = system: SF-295
[6] = system: SNB-19
[7] = system: HT-29
[8] = system: MDA-N
[9] = system: LOX IMVI
[10] = system: NCI-H23
[11] = system: UACC-62
[12] = system: SR
[13] = system: MOLT-4
[14] = system: UACC-257
[15] = system: MDA-MB-231
[16] = system: HCT-116
[17] = system: M14
[18] = system: CAKI-1
[19] = system: IGROV-1
[20] = system: K562
[21] = system: ACHN
[22] = system: OVCAR-8
[23] = system: SN12C
[24] = system: SW-620
[25] = system: HL-60
[26] = system: NCI-H226
[27] = system: SK-OV-3
[28] = system: OVCAR-5
[29] = system: SF-268
[30] = system: NCI-H522
[31] = system: 786-0
[32] = system: COLO 205
[33] = system: A549
[34] = system: DU-145
[35] = system: CCRF-CEM
[36] = system: BT-549
[37] = system: TK-10
[38] = system: MCF7
[39] = system: EKVX
[40] = system: SK-MEL-5
[41] = system: HOP-92
[42] = system: NCI/ADR-RES
[43] = system: Malme-3M
[44] = system: PC-3
[45] = system: SK-MEL-2
[46] = system: RXF 393
[47] = system: MDA-MB-435
[48] = system: U-251
[49] = system: KM12
[50] = system: OVCAR-4
[51] = system: A498
[52] = system: SF-539
[53] = system: SNB-75
[54] = system: SK-MEL-28
[55] = system: OVCAR-3
[56] = system: RPMI-8226
[57] = system: HOP-62

CSCCC(NC(=O)C(CC(C)C)NC(=O)CNC(=O)OC(C)(C)C)C(=O)N(C)C (stereo not drawn) (Boc-Gly-Leu-Met-NMe2; configuration not given here)
GI50 [1]: > 100 µM | GI50 [2]: 4 µM (inactive) | GI50 [3]: > 100 µM (inactive) | GI50 [4]: > 100 µM (inactive) | GI50 [5]: > 100 µM (inactive) | GI50 [6]: > 100 µM (inactive) | GI50 [7]: > 100 µM (inactive) | GI50 [8]: > 100 µM (inactive) | GI50 [9]: > 100 µM (inactive) | GI50 [10]: > 100 µM (inactive) | GI50 [11]: > 100 µM (inactive) | GI50 [12]: > 100 µM (inactive) | GI50 [13]: > 100 µM (inactive) | GI50 [14]: > 100 µM (inactive) | GI50 [15]: > 100 µM (inactive) | GI50 [16]: > 100 µM (inactive) | GI50 [17]: > 100 µM (inactive) | GI50 [18]: > 100 µM (inactive) | GI50 [19]: > 100 µM (inactive) | GI50 [20]: > 100 µM (inactive) | GI50 [21]: > 100 µM (inactive) | GI50 [22]: > 100 µM (inactive) | GI50 [23]: > 100 µM (inactive) | GI50 [24]: > 100 µM (inactive) | GI50 [25]: > 100 µM (inactive) | GI50 [26]: > 100 µM (inactive) | GI50 [27]: > 100 µM (inactive) | GI50 [28]: > 100 µM (inactive) | GI50 [29]: > 100 µM (inactive) | GI50 [30]: > 100 µM (inactive) | GI50 [31]: > 100 µM (inactive) | GI50 [32]: > 100 µM (inactive) | GI50 [33]: > 100 µM (inactive) | GI50 [34]: > 100 µM (inactive) | GI50 [35]: > 100 µM (inactive) | GI50 [36]: > 100 µM (inactive) | GI50 [37]: > 100 µM (inactive) | GI50 [38]: > 100 µM (inactive) | GI50 [39]: > 100 µM (inactive) | GI50 [40]: > 100 µM (inactive) | GI50 [41]: > 100 µM (inactive) | GI50 [42]: > 100 µM (inactive) | GI50 [43]: 87.7 µM (inactive) | GI50 [44]: > 100 µM (inactive) | GI50 [45]: > 100 µM (inactive) | GI50 [46]: > 100 µM (inactive) | GI50 [47]: > 100 µM (inactive) | GI50 [48]: > 100 µM (inactive) | GI50 [49]: > 100 µM (inactive) | GI50 [50]: > 100 µM (inactive) | GI50 [51]: > 100 µM (inactive) | GI50 [52]: > 100 µM (inactive) | GI50 [53]: 0.0272 µM (active) | GI50 [54]: > 100 µM (inactive)

CC(C)(C)NCC(O)COc1cccc2[nH]c(C#N)cc12 (centres undefined) [CYANOPINDOLOL]
GI50 [1]: > 100 µM | GI50 [2]: > 100 µM (inactive) | GI50 [3]: > 100 µM (inactive) | GI50 [4]: > 100 µM (inactive) | GI50 [5]: > 100 µM (inactive) | GI50 [6]: > 100 µM (inactive) | GI50 [7]: > 100 µM (inactive) | GI50 [8]: > 100 µM (inactive) | GI50 [10]: > 100 µM (inactive) | GI50 [11]: > 100 µM (inactive) | GI50 [12]: > 100 µM (inactive) | GI50 [13]: > 100 µM (inactive) | GI50 [55]: > 100 µM (inactive) | GI50 [15]: > 100 µM (inactive) | GI50 [16]: > 100 µM (inactive) | GI50 [17]: > 100 µM (inactive) | GI50 [18]: > 100 µM (inactive) | GI50 [19]: > 100 µM (inactive) | GI50 [21]: > 100 µM (inactive) | GI50 [22]: > 100 µM (inactive) | GI50 [23]: > 100 µM (inactive) | GI50 [24]: > 100 µM (inactive) | GI50 [25]: > 100 µM (inactive) | GI50 [26]: > 100 µM (inactive) | GI50 [27]: > 100 µM (inactive) | GI50 [28]: > 100 µM (inactive) | GI50 [29]: > 100 µM (inactive) | GI50 [30]: 27.2 µM (inactive) | GI50 [31]: > 100 µM (inactive) | GI50 [56]: > 100 µM (inactive) | GI50 [32]: 56 µM (inactive) | GI50 [33]: > 100 µM (inactive) | GI50 [34]: > 100 µM (inactive) | GI50 [36]: > 100 µM (inactive) | GI50 [37]: 84.5 µM (inactive) | GI50 [38]: > 100 µM (inactive) | GI50 [57]: > 100 µM (inactive) | GI50 [39]: > 100 µM (inactive) | GI50 [40]: > 100 µM (inactive) | GI50 [42]: > 100 µM (inactive) | GI50 [43]: > 100 µM (inactive) | GI50 [44]: > 100 µM (inactive) | GI50 [45]: > 100 µM (inactive) | GI50 [47]: > 100 µM (inactive) | GI50 [48]: > 100 µM (inactive) | GI50 [49]: > 100 µM (inactive) | GI50 [50]: > 100 µM (inactive) | GI50 [51]: 68.1 µM (inactive) | GI50 [52]: > 100 µM (inactive) | GI50 [54]: > 100 µM (inactive)
